Results published in patent publication US6964959B2, “Use of a methylol-containing compound to treat tumors” (Carter Wallace, Inc., priority 1999, dated 2005).
“Also recorded” adds a separate entry of the source.

Legend:
[1] = test system: human tumor cell lines; test: Tumor cell killing and apoptosis in culture; assay type: cell-based
[2] = test system: Bcl2-over expressing HL-60 cells; test: Apoptosis induction in Bcl2-over expressing HL-60 cells; assay type: cell-based, human
Text: Human leukemia HL-60 cells, which were genetically-engineered to resist apoptotic induction, were induced to apoptosis independently (downstream) of the bcl-2/bax (anti-death gene) point in the signal transduction cascade.

[3] = Clinical tolerability in ovarian tumor and glioblastoma patients; assay type: in vivo, human; conditions: i.p. lavage after surgery for recurrent ovarian tumors; systemic in glioblastoma
Method: Taurolidine was administered by i.p. lavage immediately following surgery for removal of recurrent ovarian tumors. For patients with glioblastoma, Taurolidine was administered systemically.
Taurolidine was administered by i.p. lavage immediately following surgery for removal of recurrent ovarian tumors. For patients with glioblastoma, taurolidine was administered systemically.

[4] = test system: glioblastoma multiforma; test: Clinical use in patients with advanced recurrent glioblastoma multiforma; assay type: in vivo, human
Method: Four patients, which were diagnosed with advanced recurrent glioblastoma multiforma, were treated with taurolidine. The prognosis for this group of patients was determined to be approximately 8 weeks of survival.

[5] = test system: PA1 human ovarian cells; test: DNA fragmentation, PA1 human ovarian cells; assay type: cell-based
Text: (§1) This DNA fragmentation was not observed in normal 3T3 cells.

[6] = test system: SKOV-3; test: Flow cytometry cell cycle distribution / DNA debris, SKOV-3; assay type: cell-based, human; conditions: 48 h exposure
Method: Three×10^5 cells were seeded in plastic tissue culture flasks. […] Control cultures received an appropriate volume of Kollidine-17P. […] The percentage of DNA debris in the sub-G0/G1 region was assessed using cytofluorometric techniques. Each bar represents the mean (±SE) of three determinations. **p≦0.01, ***p≦0.001, ****p≦0.0001
For flow cytometry studies, 1×10^6 PA-1, SKOV-3, or NIH-3T3 cells were incubated for 24 h in appropriate media containing serum. […] Control cultures for each cell line were incubated in media containing 40 μl of 5% Kollidon 17PF alone. Forty-eight hours later, all cells were harvested by trypsinization and prepared for cytofluorometric analysis by standard methods. For example, harvested cells were resuspended in ice cold phosphate-buffered saline at a final cell density of 2×10^6 cells/ml. The cells then were stained for 30 min at room temperature in the dark with a solution of 0.05 mg/ml propidium iodide, 0.6% Igepal, and 1% sodium citrate. Flow cytometry was performed by FACScan (Becton Dickinson, Plymouth, England) using the ModFit LT program (Becton Dickinson). […]
Three×10^5 cells were seeded in plastic tissue culture flasks. […] After an additional 48 h, cells were harvested, stained with propidium iodide, and cell cycle distribution assessed using cytofluorometric techniques. […]

[7] = test system: human cancer cell lines; test: Growth inhibition of human cancer cell lines, 3-day exposure; assay type: cell-based; conditions: 72 h, read-out: concentration required to inhibit tumor cell growth (IC50)
Method: Parallel studies were carried out to assess whether disruption of cell adhesion played a role in the cytotoxic activity.

[8] = test system: PARP; test: Western-blot analysis of PARP cleavage, PA-1 cells; assay type: cell-based, human; conditions: 24 h exposure to 50 or 100 μM
Method: (§2) Two×10^6 cells were seeded in 150 cm^2 tissue culture flasks. […] After an additional twenty-four hours, cells were harvested, cell number determined, and aliquots derived from equal cell numbers generated from each exposure condition. Total proteins from these whole cell lysates were separated by SDS-PAGE and transferred to nitrocellulose filters. Filters were then immunoblotted to detect intact PARP protein and cleavage fragments by using the clone C-2-10 mouse monoclonal anti-PARP antibody (Zymed Laboratories, San Francisco, Calif.). The resulting protein-antibody complexes were visualized by chemiluminescence techniques.
(§3) Western-blot analysis was used to assess of PARP cleavage. Two×10^6 cells were seeded into separate 75 cm^2 tissue culture flasks containing 20 ml of tissue culture media plus serum. […] Twenty-four hours after the addition of Taurolidine, cells were harvested, cell number determined, and aliquots containing an equal cell number were generated from each exposure condition. Total proteins from whole cell lysates generated from these aliquots were separated by SDS-PAGE and electrotransferred to nitrocellulose filters. Filters were then processed to detect intact PARP protein and cleavage fragments by using the clone C-2-10 mouse monoclonal anti-PARP antibody (Zymed Laboratories, San Francisco, Calif.). […]

[9] = test system: 3T3 cells; test: DNA fragmentation, normal 3T3 cells; assay type: cell-based
Text: as §1

[10] = test system: normal murine bone marrow cultures; test: Cytotoxic and apoptotic activity in normal murine bone marrow cultures; assay type: cell-based
Text: This observation was confirmed using normal (non-tumor) primary cells derived from animals, which are known to be free of tumors.

[11] = test system: PARP; test: Western-blot analysis of PARP cleavage, NIH-3T3 cells; assay type: cell-based, murine; conditions: 24 h exposure to 50 or 100 μM
Method: as §2, §3

[12] = Taurolidine-induced toxicity in athymic (nude) female mice; assay type: in vivo; conditions: for mortality (%): i.p., three consecutive days, nude female mice
Method: Control animals received 1 ml injections of 5% Kollidon 17PF alone. Animals were examined daily and body weight recorded twice weekly. A reduction in body weight of greater than 10% was considered significant. The maximally tolerated dose (MTD) was considered to be the dose which produced ˜10% mortality.
During the injection regimen, and daily thereafter for 30 d, mice were weighed and examined. Experiments were repeated a minimum of three times and mortality and weight loss data pooled.

In the case of `O=S1(=O)CCN(CN2CCS(=O)(=O)NC2)CN1` [Taurolidine, Bis-(1,1-dioxoperhydro-1,2,4-thiadiazinyl-4)methane], the “incubation time after which apoptosis of tumor cells is induced” value ([1]; in culture) is reported as “as little as one hour”, the “number of different human tumor cell lines killed” value ([1]; ovarian, breast, brain, colon, prostate, urinary bladder, lung, melanomas, mesotheliomas, laryngeal carcinomas, leukemias, lymphomas) is reported as “at least 28” and the induction of apoptosis [2] is reported as “capable of inducing apoptosis, but with a delayed onset”. For the same compound, the tolerability in patients [3] was “well tolerated”, the “patients in whom the tumor mass decreased or stayed the same” value ([4]; 20 g infused intravenously over 6 hours twice a week, at least one 5 week regimen, four patients) was 3 out of the 4 and the survival ([4]; at 14 weeks after the initiation of therapy, prognosis approximately 8 weeks) was “each of the patients remains alive”. The DNA fragmentation ([5]; PA1, 24-hour exposure) was “induced a high degree of DNA fragmentation”, the “DNA fragmentation by agarose-gel electrophoresis” value ([5]; ovarian tumor cells, 50 μM) was “overt DNA fragmentation” and the “effect on cell cycle distribution” value [6] was “reduced the percentage of cells in the G0/G1-phase and increased the percentage of cells in both S and G2/M; also recorded: concentration-dependent decrease in the percentage of cells in G0/G1 but increased the percentage of cells in both the S-phase and G2/M”. For the same compound, the “DNA debris in the sub-G0/G1 region” value ([6]; 25-100 μM) was “significantly increased DNA debris; also recorded: resulted in the appearance of DNA debris”, the IC50 [7] was 12.5 to 50 µM and the PARP cleavage [8] was “induced PARP cleavage; also recorded: resulted in PARP cleavage”. For the same compound, the DNA fragmentation ([9]; 3T3, 24-hour exposure) was “not observed”, the “DNA fragmentation by agarose-gel electrophoresis” value ([9]; 3T3 cells, identical regimen (50 μM)) was “not apparent” and the “concentrations required to inhibit cell proliferation” value ([10]; normal murine bone marrow) was “concentrations in the mM range”. The induction of apoptosis ([10]; normal murine bone marrow cultures) was “did not produce cellular changes consistent with the induction of apoptosis”, the PARP cleavage [11] was “little evidence of this proteolytic event” and the PARP cleavage ([11]; listed as taurolidine) was “PARP cleavage was not evident”. For the same compound, the “mortality (%)” value ([12]; 10 mg/mouse/inj) was 6%, the “mortality (%)” value ([12]; 20 mg/mouse/inj) was 13% and the “mortality (%)” value ([12]; 25 mg/mouse/inj) was 47%. The “mortality (%)” value ([12]; 30 mg/mouse/inj) was 100% and the tolerability ([12]; daily doses below 15 mg/mouse (˜650 mg/kg), 3 d i.p. bolus regimen) was “well-tolerated”.
